Like-named read-outs stand apart in the source and are kept apart here.

What all share (test): cell-based
In one assay the target is T1, M2 muscarinic receptor (Homo sapiens, UniProt P08172).
T1 construct: expressed in transfected cells; host or cells: CHO (M2-CHO)
T1 sequence (P08172 1-466): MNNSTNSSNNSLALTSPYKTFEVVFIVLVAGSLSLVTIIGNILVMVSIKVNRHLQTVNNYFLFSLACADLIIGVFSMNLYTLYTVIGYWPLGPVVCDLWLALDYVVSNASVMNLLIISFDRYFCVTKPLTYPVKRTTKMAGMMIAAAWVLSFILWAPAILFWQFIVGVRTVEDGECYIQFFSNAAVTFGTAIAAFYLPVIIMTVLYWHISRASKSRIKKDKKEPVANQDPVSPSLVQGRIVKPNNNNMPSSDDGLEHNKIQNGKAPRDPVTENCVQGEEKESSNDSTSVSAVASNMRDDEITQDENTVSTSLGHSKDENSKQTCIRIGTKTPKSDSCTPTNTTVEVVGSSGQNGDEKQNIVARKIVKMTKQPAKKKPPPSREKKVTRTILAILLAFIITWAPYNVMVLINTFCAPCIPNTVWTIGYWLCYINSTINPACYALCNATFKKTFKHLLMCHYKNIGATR
The note with it: for Emax: read-out: M2 Efficacy.

For the next assay, the target named is T2, M4 muscarinic receptor (Homo sapiens, UniProt P08173).
T2 construct: expressed in transfected cells; host or cells: CHO (M4-CHO)
T2 sequence (P08173 1-479): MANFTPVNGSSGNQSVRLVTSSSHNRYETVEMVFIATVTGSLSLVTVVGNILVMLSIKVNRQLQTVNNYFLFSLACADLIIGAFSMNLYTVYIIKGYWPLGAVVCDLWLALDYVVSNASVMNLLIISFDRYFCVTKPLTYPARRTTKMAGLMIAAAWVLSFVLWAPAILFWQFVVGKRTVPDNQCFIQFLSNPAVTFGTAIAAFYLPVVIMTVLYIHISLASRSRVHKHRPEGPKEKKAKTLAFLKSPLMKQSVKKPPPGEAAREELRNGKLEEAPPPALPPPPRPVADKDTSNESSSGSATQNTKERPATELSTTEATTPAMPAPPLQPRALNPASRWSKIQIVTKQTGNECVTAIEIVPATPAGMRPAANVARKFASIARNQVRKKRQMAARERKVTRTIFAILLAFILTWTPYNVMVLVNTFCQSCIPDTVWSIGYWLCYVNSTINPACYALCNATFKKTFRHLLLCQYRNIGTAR
The settings on record: for Emax: read-out: M4 Efficacy.

A further assay addresses T3, M1 muscarinic receptor (Homo sapiens, UniProt P11229).
T3 construct: expressed in transfected cells; host or cells: CHO (M1-CHO)
T3 sequence (P11229 1-460): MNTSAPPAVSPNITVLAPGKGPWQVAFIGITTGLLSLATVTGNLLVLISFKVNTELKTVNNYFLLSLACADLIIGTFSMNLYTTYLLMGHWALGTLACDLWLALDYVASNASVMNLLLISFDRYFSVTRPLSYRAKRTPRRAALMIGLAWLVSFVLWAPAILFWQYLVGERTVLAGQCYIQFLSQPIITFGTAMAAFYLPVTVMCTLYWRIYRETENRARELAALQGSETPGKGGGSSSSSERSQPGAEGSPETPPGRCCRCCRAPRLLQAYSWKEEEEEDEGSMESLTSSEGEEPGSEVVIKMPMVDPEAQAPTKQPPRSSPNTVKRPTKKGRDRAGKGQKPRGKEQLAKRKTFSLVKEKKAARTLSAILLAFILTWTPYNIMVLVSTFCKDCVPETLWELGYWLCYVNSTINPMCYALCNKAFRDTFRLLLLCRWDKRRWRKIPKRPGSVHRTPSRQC
The settings on record: for Emax: read-out: M1 Efficacy.

In another assay the target is T4, M3 muscarinic receptor (Homo sapiens, UniProt P20309).
T4 construct: expressed in transfected cells; host or cells: CHO (M3-CHO)
The note with it: for Emax: read-out: M3 Efficacy.

T4 sequence (P20309 whole entry): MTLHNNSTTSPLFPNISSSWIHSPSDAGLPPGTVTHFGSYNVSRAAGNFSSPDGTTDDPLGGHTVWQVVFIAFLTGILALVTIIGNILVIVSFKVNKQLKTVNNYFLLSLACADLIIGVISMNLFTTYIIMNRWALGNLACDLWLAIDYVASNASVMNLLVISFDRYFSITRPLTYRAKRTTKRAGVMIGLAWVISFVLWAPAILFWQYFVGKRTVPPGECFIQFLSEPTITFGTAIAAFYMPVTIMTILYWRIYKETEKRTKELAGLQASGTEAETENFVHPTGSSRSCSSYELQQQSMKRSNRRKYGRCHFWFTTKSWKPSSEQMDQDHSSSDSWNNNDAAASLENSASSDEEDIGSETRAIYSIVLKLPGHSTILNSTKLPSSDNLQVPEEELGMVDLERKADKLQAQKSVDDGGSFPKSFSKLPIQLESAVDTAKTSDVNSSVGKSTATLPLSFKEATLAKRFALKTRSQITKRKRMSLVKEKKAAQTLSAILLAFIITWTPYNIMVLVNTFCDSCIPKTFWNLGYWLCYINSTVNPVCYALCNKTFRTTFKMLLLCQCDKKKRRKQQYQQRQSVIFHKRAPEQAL

Take `CCOC(=O)N1C2CCC1CC(N1CCC(N(C)c3ccc(F)cc3)CC1)C2` (stereo not drawn) [Compound 9]: the EC50 on M2 muscarinic receptor is more than 5 µM; at M4 muscarinic receptor, more than 5 µM; at M1 muscarinic receptor, more than 5000 nM; on M3 muscarinic receptor it was more than 5 µM. Further, the Emax at M2 muscarinic receptor was less than 25%; at M4 muscarinic receptor it was 25 to 100%; on M1 muscarinic receptor, 25 to 100%; on M3 muscarinic receptor, less than 25%.

Consider `CCOC(=O)N1C2CCC1CC(N1CCC(N(C(C)=O)C3CCCC3)CC1)C2` (stereo not drawn) [Compound 15], for which the EC50 at M2 muscarinic receptor is less than 2 µM; on M4 muscarinic receptor, less than 2 µM; at M1 muscarinic receptor, less than 2000 nM; on M3 muscarinic receptor, 2 to 5 µM. Further, the Emax at M2 muscarinic receptor, on M4 muscarinic receptor, at M1 muscarinic receptor and at M3 muscarinic receptor was 25 to 100% each time.

Turning to `CCCN(C1CCN(C2CC3CCC(C2)N3C(=O)OCC)CC1)S(=O)(=O)c1ccc(C(F)(F)F)cc1` (stereo not drawn) [Compound 19], the EC50 is more than 5 µM on M2 muscarinic receptor, more than 5 µM at M4 muscarinic receptor, more than 5000 nM at M1 muscarinic receptor and more than 5 µM on M3 muscarinic receptor. For the same compound, the Emax on M2 muscarinic receptor, at M4 muscarinic receptor, at M1 muscarinic receptor and on M3 muscarinic receptor was less than 25% in each case.

For the compound `CCOC(=O)N1C2CCC1CC(N1CCC(N(CC(=O)CC)c3ccc(F)cc3)CC1)C2` (stereo not drawn) [Compound 20], the EC50 is more than 5 µM at M2 muscarinic receptor, more than 5 µM at M4 muscarinic receptor, less than 2000 nM at M1 muscarinic receptor and more than 5 µM on M3 muscarinic receptor. Also, the Emax on M2 muscarinic receptor is less than 25%; on M4 muscarinic receptor, less than 25%; on M1 muscarinic receptor, 25 to 100%; on M3 muscarinic receptor, less than 25%.

With `CCOC(=O)N1C2CCC1CC(N1CCC(N(CC(=O)CC)c3ccc(F)cc3)CC1)C2` (stereo not drawn) [Compound 25], the EC50 on M2 muscarinic receptor (read-out: M2 Activity) was more than 5 µM; on M4 muscarinic receptor (read-out: M4 Activity) it was more than 5 µM; on M1 muscarinic receptor (read-out: M1 Activity) it was less than 2000 nM; on M3 muscarinic receptor (read-out: M3 Activity) it was more than 5 µM.

Consider `CCOC(=O)N1C2CCC1CC(N1CCC(N(C)c3ccccc3)CC1)C2` (stereo not drawn) [Compound 27], for which the EC50 on M2 muscarinic receptor was more than 5 µM; on M4 muscarinic receptor, more than 5 µM; at M1 muscarinic receptor it was less than 2000 nM; at M3 muscarinic receptor, more than 5 µM. In addition, the Emax was less than 25% on M2 muscarinic receptor, less than 25% at M4 muscarinic receptor, 25 to 100% at M1 muscarinic receptor and less than 25% on M3 muscarinic receptor.

For the compound `CCOC(=O)N1C2CCC1CC(N1CCC(N(CC(C)C)S(=O)(=O)c3ccc(C(F)(F)F)cc3)CC1)C2` (stereo not drawn) [Compound 28], the EC50 on M2 muscarinic receptor was more than 5 µM; on M4 muscarinic receptor, more than 5 µM; at M1 muscarinic receptor, more than 5000 nM; at M3 muscarinic receptor, more than 5 µM. In addition, the Emax on M2 muscarinic receptor, at M4 muscarinic receptor, at M1 muscarinic receptor and on M3 muscarinic receptor was less than 25% in each case.

In the case of `CCOC(=O)N1C2CCC1CC(N1CCC(N(Cc3ccccc3)C(C)=O)CC1)C2` (stereo not drawn) [Compound 35], the EC50 on M2 muscarinic receptor was more than 5 µM; at M4 muscarinic receptor it was 2 to 5 µM; on M1 muscarinic receptor, less than 2000 nM; at M3 muscarinic receptor, more than 5 µM. In addition, the Emax at M2 muscarinic receptor, on M4 muscarinic receptor, on M1 muscarinic receptor and on M3 muscarinic receptor was 25 to 100% each time.

`CCOC(=O)N1C2CCC1CC(N1CCC(N(CC)c3ccccc3)CC1)C2` (stereo not drawn) [Compound 37, 3-[4-(ethyl-phenyl-amino)-piperidin-1-yl]-8-azabicyclo[3.2.1]octane-8-carboxylic acid ethyl ester]: the EC50 at M2 muscarinic receptor was more than 5 µM; on M4 muscarinic receptor, less than 2 µM; at M1 muscarinic receptor, less than 2000 nM; at M3 muscarinic receptor, more than 5 µM. Moreover, the Emax on M2 muscarinic receptor is less than 25%; on M4 muscarinic receptor, less than 25%; at M1 muscarinic receptor it was 25 to 100%; at M3 muscarinic receptor, less than 25%.

In the case of `CCOC(=O)N1C2CCC1CC(N1CCC(N(C(C)=O)C(C)C)CC1)C2` (stereo not drawn) [Compound 60], the EC50 was more than 5 µM at M2 muscarinic receptor, more than 5 µM on M4 muscarinic receptor, 2000 to 5000 nM at M1 muscarinic receptor and more than 5 µM at M3 muscarinic receptor. The Emax at M2 muscarinic receptor is less than 25%; on M4 muscarinic receptor, less than 25%; on M1 muscarinic receptor it was 25 to 100%; at M3 muscarinic receptor it was less than 25%.

Turning to `CCOC(=O)N1C2CCC1CC(N1CCC(N(C(C)=O)C3CCCCC3)CC1)C2` (stereo not drawn) [Compound 63], the EC50 at M2 muscarinic receptor was 2 to 5 µM; at M4 muscarinic receptor, less than 2 µM; at M1 muscarinic receptor, less than 2000 nM; at M3 muscarinic receptor, 2 to 5 µM. The Emax on M2 muscarinic receptor was less than 25%; on M4 muscarinic receptor, 25 to 100%; at M1 muscarinic receptor it was 25 to 100%; on M3 muscarinic receptor, 25 to 100%.

With `CCOC(=O)N1C2CCC1CC(N1CCC(Nc3ccc(F)cc3)CC1)C2` (stereo not drawn) [Compound 64, 3-[4-(4-Fluoro-phenylamino)-piperidin-1-yl]-8-aza-bicyclo[3.2.1]octane-8-carboxylic acid ethyl ester], the EC50 is more than 5 µM at M2 muscarinic receptor, more than 5 µM on M4 muscarinic receptor, 2000 to 5000 nM on M1 muscarinic receptor and more than 5 µM on M3 muscarinic receptor. For the same compound, the Emax on M2 muscarinic receptor is less than 25%; at M4 muscarinic receptor, less than 25%; at M1 muscarinic receptor it was 25 to 100%; at M3 muscarinic receptor, less than 25%.

For `CCOC(=O)N1C2CCC1CC(N1CCC(N(c3ccc(F)cc3)S(C)(=O)=O)CC1)C2` (stereo not drawn) [Compound 71, 3-{4-[(4-Fluoro-phenyl)-methanesulfonyl-amino]-piperidin-1-yl}-8-aza-bicyclo[3.2.1]octane-8-carboxylic acid ethyl ester], the EC50 on M2 muscarinic receptor is more than 5 µM; on M4 muscarinic receptor it was 2 to 5 µM; at M1 muscarinic receptor it was less than 2000 nM; on M3 muscarinic receptor, more than 5 µM. Moreover, the Emax at M2 muscarinic receptor is less than 25%; at M4 muscarinic receptor it was 25 to 100%; on M1 muscarinic receptor, 25 to 100%; at M3 muscarinic receptor, 25 to 100%.

For the compound `CCOC(=O)N1C2CCC1CC(N1CCC3(CCC(=O)N3c3ccccc3)CC1)C2` (stereo not drawn) [Compound 88, Ethyl 3-(2-oxo-1-phenyl-1,8-diazaspiro[4.5]decan-8-yl)-8-azabicyclo[3.2.1]octane-8-carboxylate], on M2 muscarinic receptor, the EC50 is less than 2 µM and the “M2 Efficacy” value was “++ (key: +++: efficacy was calculated to be greater than 100%; ++: efficacy was calculated to be from 100% to 25%; +: efficacy was calculated to be less than 25%; −: no data was available)”. In addition, at M4 muscarinic receptor, the EC50 is less than 2 µM and the “M4 Efficacy” value is reported as “++ (key: +++: efficacy was calculated to be greater than 100%; ++: efficacy was calculated to be from 100% to 25%; +: efficacy was calculated to be less than 25%; −: no data was available)”. Moreover, on M1 muscarinic receptor, the EC50 is less than 2000 nM and the “M1 Efficacy” value is reported as “++ (key: +++: efficacy was calculated to be greater than 100%; ++: efficacy was calculated to be from 100% to 25%; +: efficacy was calculated to be less than 25%; −: no data was available)”. At M3 muscarinic receptor, the EC50 is more than 5 µM and the “M3 Efficacy” value is recorded as “+ (key: +++: efficacy was calculated to be greater than 100%; ++: efficacy was calculated to be from 100% to 25%; +: efficacy was calculated to be less than 25%; −: no data was available)”.

The record behind these values is patent US7786308B2 (priority 2005, dated 2010).
